# What was measured:
# [1] = system: d-U937 cells; assay: Cell viability: MTT assay in differentiated U937 cells; type: cell-based, human; conditions: 10 μg/mL
# In short: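 Differentiated U937 cells exposed to compound at a final 10 μg/mL, either 4 h in 5% FCS RPMI1640 or 24 h in 10% FCS RPMI1640. MTT added for 1 h, formazan dissolved in DMSO, absorbance read at 550 nm; % viability loss relative to 0.5% DMSO vehicle, with increases shown as negative values.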
# [2] = biological target: T1, GSK 3α enzyme isoform (Homo sapiens, UniProt P49840); assay: GSK 3α enzyme inhibition (Z-LYTE FRET); type: biochemical; conditions: Table 2A; read-out: IC50 Values for Enzyme Inhibition GSK3α
# T1 construct: purchased Life Technologies
# T1 sequence (P49840 whole entry, canonical isoform): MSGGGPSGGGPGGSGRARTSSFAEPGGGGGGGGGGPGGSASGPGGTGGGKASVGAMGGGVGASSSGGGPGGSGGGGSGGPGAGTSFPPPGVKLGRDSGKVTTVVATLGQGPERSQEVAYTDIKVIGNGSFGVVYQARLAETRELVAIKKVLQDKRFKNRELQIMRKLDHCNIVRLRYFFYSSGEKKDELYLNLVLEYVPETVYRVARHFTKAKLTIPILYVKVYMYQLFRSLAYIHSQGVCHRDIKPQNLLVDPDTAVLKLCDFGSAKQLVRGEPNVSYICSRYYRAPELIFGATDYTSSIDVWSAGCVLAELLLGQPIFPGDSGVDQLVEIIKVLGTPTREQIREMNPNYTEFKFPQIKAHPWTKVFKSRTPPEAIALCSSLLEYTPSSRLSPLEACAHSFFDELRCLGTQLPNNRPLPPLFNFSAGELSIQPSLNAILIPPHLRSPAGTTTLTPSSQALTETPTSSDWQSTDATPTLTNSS
# In short: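 Z-LYTE FRET kinase assay: GSK3α protein (500 ng/mL stock) preincubated with compound (0.0012–40 μg/mL stocks) for 2 h at RT. FRET peptide (8 μM stock) and ATP (40 μM stock) added for 1 h at RT, then protease development for 1 h. Phosphorylation taken from the coumarin/fluorescein emission ratio.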
# [3] = biological target: T2, p38MAPKγ (MAPK12) (Homo sapiens, UniProt P53778); assay: p38 MAPKγ enzyme inhibition (Z-LYTE FRET); type: biochemical; conditions: Table 2A; read-out: IC50 Values for Enzyme Inhibition p38 MAPKγ
# T2 construct: purchased Life Technologies
# T2 sequence (P53778 1-367): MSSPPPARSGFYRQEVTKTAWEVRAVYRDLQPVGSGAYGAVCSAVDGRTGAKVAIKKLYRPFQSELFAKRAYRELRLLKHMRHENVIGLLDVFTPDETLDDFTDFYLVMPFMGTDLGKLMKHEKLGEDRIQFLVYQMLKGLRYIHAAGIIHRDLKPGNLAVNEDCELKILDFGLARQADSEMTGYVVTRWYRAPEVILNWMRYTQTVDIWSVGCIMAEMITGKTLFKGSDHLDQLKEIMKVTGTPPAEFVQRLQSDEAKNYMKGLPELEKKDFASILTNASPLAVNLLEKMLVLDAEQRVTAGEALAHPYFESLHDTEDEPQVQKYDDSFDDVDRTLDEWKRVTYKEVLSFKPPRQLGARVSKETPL
# In short: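 Z-LYTE read-out: after 1 h protease development, only non-phosphorylated peptide is cleaved, and the donor/acceptor (coumarin/fluorescein) ratio reports phosphorylation. Beforehand, enzyme and compound (stock concentrations 0.0012–40 μg/mL) were preincubated 2 h at RT, then the kinase reaction ran 1 h at RT with peptide and ATP (8 μM and 400 μM stocks).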
# [4] = system: IL-8 release in d-U937 cells; assay: LPS-induced IL-8 release in d-U937 cells; type: cell-based; conditions: Homo sapiens, dU937, LPS 0.1 μg/mL 4 h
# Protocol: U937 cells, a human monocytic cell line, were differentiated into macrophage-type cells by incubation with PMA (100-200 ng/mL) for 48 to 72 h. Cells were pre-incubated with final […] concentrations of test compound for 2 h and were then stimulated with LPS (0.1 μg/mL; from E. coli: O111:B4, Sigma) for 4 h. The supernatant was collected for determination of TNFα and IL-8 concentrations by sandwich ELISA (Duo-set, R&D systems). […] The relative 50% effective concentration (REC50) was determined from the resultant concentration-response curve. The inhibition of IL-8 production was calculated at each concentration of test compound by comparison with vehicle control.
Compound,IC50 [2],IC50 [3],IC50 [4],"MTT Assay Cell viability at time point indicated in d-U937 Cells, 4 h [1]","MTT Assay Cell viability at time point indicated in d-U937 Cells, 24 h [1]"
Cc1ccc(-n2nc(C(C)(C)C)cc2NC(=O)Nc2ccc(OCc3ccnc(Nc4cnc(C(=O)N5CCOCC5)cn4)c3)c3ccccc23)cc1 [Example 35],3430 nM,171 nM,102 nM,"− (−ve and +ve indicate the value is below and above, respectively, the no significant effect threshold defined as 30% inhibition at 10 μg/mL at the time point indicated)","− (−ve and +ve indicate the value is below and above, respectively, the no significant effect threshold defined as 30% inhibition at 10 μg/mL at the time point indicated)"
Cc1ccc(-n2nc(C(C)(C)C)cc2NC(=O)Nc2ccc(OCc3ccnc(Nc4cncc(CO)n4)c3)c3ccccc23)cc1 [Example 21],1580 nM,31 nM,7.9 nM,"− (−ve and +ve indicate the value is below and above, respectively, the no significant effect threshold defined as 30% inhibition at 10 μg/mL at the time point indicated)","− (−ve and +ve indicate the value is below and above, respectively, the no significant effect threshold defined as 30% inhibition at 10 μg/mL at the time point indicated)"
CNC(=O)Cc1cncc(Nc2cc(COc3ccc(NC(=O)Nc4cc(C(C)(C)C)nn4-c4ccc(C)cc4)c4ccccc34)ccn2)n1 [Example 28],5170 nM,106 nM,29.9 nM,"− (−ve and +ve indicate the value is below and above, respectively, the no significant effect threshold defined as 30% inhibition at 10 μg/mL at the time point indicated)","+ (−ve and +ve indicate the value is below and above, respectively, the no significant effect threshold defined as 30% inhibition at 10 μg/mL at the time point indicated)"

# The next lines start with results.
IC50 [2],IC50 [3],IC50 [4],Compound,"MTT Assay Cell viability at time point indicated in d-U937 Cells, 4 h [1]","MTT Assay Cell viability at time point indicated in d-U937 Cells, 24 h [1]"
3320 nM,9240 nM,8.8 nM,"Cc1ccc(-n2nc(C(C)(C)C)cc2NC(=O)Nc2ccc(OCc3ccnc(Nc4cnc(C(=O)N(C)C)cn4)c3)c3ccccc23)cc1 [Example 9, 5-((4-(((4-(3-(3-(tert-Butyl)-1-(p-tolyl)-1H-pyrazol-5-yl)ureido)naphthalen-1-yl)oxy)methyl)pyridin-2-yl)amino)-N,N-dimethylpyrazine-2-carboxamide]","− (−ve and +ve indicate the value is below and above, respectively, the no significant effect threshold defined as 30% inhibition at 10 μg/mL at the time point indicated)","− (−ve and +ve indicate the value is below and above, respectively, the no significant effect threshold defined as 30% inhibition at 10 μg/mL at the time point indicated)"
> 14700 nM,63 nM,7.8 nM,Cc1ccc(-n2nc(C(C)(C)C)cc2NC(=O)Nc2ccc(OCc3ccnc(Nc4cnccn4)c3)c3ccccc23)s1 [Example 13],"− (−ve and +ve indicate the value is below and above, respectively, the no significant effect threshold defined as 30% inhibition at 10 μg/mL at the time point indicated)","− (−ve and +ve indicate the value is below and above, respectively, the no significant effect threshold defined as 30% inhibition at 10 μg/mL at the time point indicated)"
2800 nM,473 nM,15.6 nM,Cc1ccc(-n2nc(C(C)(C)C)cc2NC(=O)Nc2ccc(OCc3ccnc(Nc4cncc(C5CCC5)n4)c3)c3ccccc23)cc1 [Example 47],"− (−ve and +ve indicate the value is below and above, respectively, the no significant effect threshold defined as 30% inhibition at 10 μg/mL at the time point indicated)","− (−ve and +ve indicate the value is below and above, respectively, the no significant effect threshold defined as 30% inhibition at 10 μg/mL at the time point indicated)"

# Source: US11142515B2, “Pyrazolyl-ureas as kinase inhibitors” (RESPIVERT LIMITED, priority 2014, dated 2021)
